# From ChEMBL document CHEMBL1201862, “PubChem BioAssay data set” (2004)
#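 Growth conditions: 96-well plates. Treatment: test compound, 48 hours, 5 concentrations. Analysis: linear interpolation between bracketing concentrations; unreached endpoints set to highest concentration. GI50 marks 50% less growth.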 Active and inactive are the calls of the source. No stated cut-off is given here; in the data, active = GI50 up to about 1.1 µM and inactive = higher.
# Key:
# Test in all cases: NCI-60 cell line screen, 48 h
# K562 = system: K562
# NCI-H460 = system: NCI-H460
# SF-268 = system: SF-268
# UO-31 = system: UO-31
# LOX IMVI = system: LOX IMVI
# SN12C = system: SN12C
# NCI-H522 = system: NCI-H522
# M14 = system: M14
# HOP-92 = system: HOP-92
# RXF 393 = system: RXF 393
# HOP-62 = system: HOP-62
# M19-MEL = system: M19-MEL
# A498 = system: A498
# SR = system: SR
# OVCAR-8 = system: OVCAR-8
# SNB-75 = system: SNB-75
# RPMI-8226 = system: RPMI-8226
# HL-60 = system: HL-60
# PC-3 = system: PC-3
# NCI/ADR-RES = system: NCI/ADR-RES
Structure (SMILES),GI50 (K562),GI50 (NCI-H460),GI50 (SF-268),GI50 (UO-31),GI50 (LOX IMVI),GI50 (SN12C),GI50 (NCI-H522),GI50 (M14),GI50 (HOP-92),GI50 (RXF 393),GI50 (HOP-62),GI50 (M19-MEL),GI50 (A498),GI50 (SR),GI50 (OVCAR-8),GI50 (SNB-75),GI50 (RPMI-8226),GI50 (HL-60),GI50 (PC-3),GI50 (NCI/ADR-RES)
COc1ccc2c(c1)CCC1C3(CCCC21C)OCCO3 (stereo unspecified),15.4 µM (inactive),16.3 µM (inactive),6.9 µM (inactive),16.9 µM (inactive),15.9 µM (inactive),16.3 µM (inactive),15.7 µM (inactive),18.8 µM (inactive),15.1 µM (inactive),13.7 µM (inactive),13.8 µM (inactive),18.6 µM (inactive),29.6 µM (inactive),20.4 µM (inactive),17.5 µM (inactive),19.8 µM (inactive),18.8 µM (inactive),15.9 µM (inactive),,
Cc1cccc2[s+]snc12,24.9 µM (inactive),> 100 µM (inactive),> 100 µM (inactive),> 100 µM (inactive),49.5 µM (inactive),> 69.2 µM (inactive),18.4 µM (inactive),> 68.5 µM (inactive),23.1 µM (inactive),47.3 µM (inactive),> 100 µM (inactive),> 60.3 µM (inactive),> 100 µM (inactive),31.3 µM (inactive),> 45 µM (inactive),> 100 µM (inactive),> 42.4 µM (inactive),18 µM (inactive),,
COc1ccc(CN2C(=O)[C@@H]3Cc4c(OC)c(C)c(OC)c(OC)c4[C@H](/C2=C\c2cc(OC)c(OC)c(C)c2OC)N3C(=O)OC(C)C)cc1,25.3 µM (inactive),15.8 µM (inactive),> 100 µM (inactive),36.5 µM (inactive),43 µM (inactive),> 100 µM (inactive),8.75 µM (inactive),28.4 µM (inactive),8.04 µM (inactive),80.4 µM (inactive),65 µM (inactive),42.7 µM (inactive),27.3 µM (inactive),6.53 µM (inactive),> 100 µM (inactive),> 100 µM (inactive),8.34 µM (inactive),5.53 µM (inactive),,
N#C/C(=C1\N=NC(N)=C(c2ccc(Cl)cc2)C1=O)c1ccc(Cl)cc1,> 100 µM (inactive),> 100 µM (inactive),> 100 µM (inactive),> 100 µM (inactive),> 100 µM (inactive),> 100 µM (inactive),> 100 µM (inactive),> 100 µM (inactive),> 100 µM (inactive),> 100 µM (inactive),> 100 µM (inactive),> 100 µM (inactive),> 100 µM (inactive),> 100 µM (inactive),> 100 µM (inactive),> 100 µM (inactive),> 100 µM (inactive),> 100 µM (inactive),,
CCOC(=O)CC(C)C1(C=O)CCCCC1=O (stereo unspecified),> 100 µM (inactive),60 µM (inactive),> 100 µM (inactive),> 100 µM (inactive),18.3 µM (inactive),> 100 µM (inactive),90.4 µM (inactive),29.6 µM (inactive),,> 100 µM (inactive),> 100 µM (inactive),> 100 µM (inactive),> 100 µM (inactive),19.9 µM (inactive),> 100 µM (inactive),> 100 µM (inactive),20.6 µM (inactive),> 100 µM (inactive),,
COC(=O)C1C(=O)NC2(C)CC1c1ccccc1O2 (stereo unspecified),> 100 µM (inactive),> 100 µM (inactive),> 100 µM (inactive),> 100 µM (inactive),> 100 µM (inactive),> 100 µM (inactive),> 100 µM (inactive),> 10 µM (inactive),> 100 µM (inactive),> 100 µM (inactive),> 10 µM (inactive),> 100 µM (inactive),> 100 µM (inactive),> 100 µM (inactive),> 100 µM (inactive),62.7 µM (inactive),> 100 µM (inactive),> 100 µM (inactive),,
CCN(CC)CCNC(=O)c1nn(-c2ccc(Cl)cc2)c2c1CCc1cc(OC)ccc1-2,2.77 µM (inactive),4.51 µM (inactive),7.19 µM (inactive),2.49 µM (inactive),2.03 µM (inactive),10.4 µM (inactive),4.52 µM (inactive),2.38 µM (inactive),5.51 µM (inactive),3.04 µM (inactive),13.3 µM (inactive),2.7 µM (inactive),8.61 µM (inactive),4.28 µM (inactive),12.3 µM (inactive),5.21 µM (inactive),2.9 µM (inactive),2.7 µM (inactive),12.6 µM (inactive),
CC/C(C)=C1\CCC(CN(C)C)C1=O (stereo unspecified),20 µM (inactive),19.3 µM (inactive),25.4 µM (inactive),20.2 µM (inactive),20.6 µM (inactive),20.1 µM (inactive),,19.5 µM (inactive),23.2 µM (inactive),20.7 µM (inactive),42.2 µM (inactive),18.1 µM (inactive),20.6 µM (inactive),19.3 µM (inactive),27.6 µM (inactive),16.3 µM (inactive),2.82 µM (inactive),18.4 µM (inactive),,
O=C(CCc1nnc2s/c(=C\c3ccc(Cl)c(Cl)c3)c(=O)n12)Nc1ccc(Cl)c(Cl)c1,72.8 µM (inactive),> 100 µM (inactive),55.5 µM (inactive),> 100 µM (inactive),19.2 µM (inactive),> 100 µM (inactive),25.1 µM (inactive),> 100 µM (inactive),86.7 µM (inactive),28.8 µM (inactive),> 100 µM (inactive),64.7 µM (inactive),39 µM (inactive),24.8 µM (inactive),20.4 µM (inactive),58.3 µM (inactive),20.4 µM (inactive),22.8 µM (inactive),,
CC(=O)OCC(OC(C)=O)C(OC(C)=O)C(OC(C)=O)C(=O)CNn1c(-c2ccccc2Cl)nc2ccccc2c1=O (stereo unspecified),> 100 µM (inactive),> 100 µM (inactive),> 100 µM (inactive),> 100 µM (inactive),> 100 µM (inactive),> 100 µM (inactive),> 100 µM (inactive),> 100 µM (inactive),,> 100 µM (inactive),> 100 µM (inactive),> 100 µM (inactive),> 100 µM (inactive),61.9 µM (inactive),> 100 µM (inactive),> 100 µM (inactive),76 µM (inactive),38.5 µM (inactive),,
Nc1ncnc2c1ncn2C1CC(O)C(CO)O1 (stereo unspecified),> 100 µM (inactive),> 100 µM (inactive),> 100 µM (inactive),> 100 µM (inactive),> 100 µM (inactive),> 100 µM (inactive),> 100 µM (inactive),> 100 µM (inactive),> 100 µM (inactive),> 100 µM (inactive),> 100 µM (inactive),> 100 µM (inactive),> 100 µM (inactive),> 100 µM (inactive),> 100 µM (inactive),> 100 µM (inactive),> 100 µM (inactive),> 100 µM (inactive),> 100 µM (inactive),> 100 µM (inactive)
COc1cc2c(cc1O)CCN[C@@]21CS[C@H]2c3c(OC(C)=O)c(C)c4c(c3C(COC1=O)N1C2C2c3c(cc(C)c(OC)c3O)CC([C@@H]1O)N2C)OCO4 (stereo partly specified),0.000324 µM (active),< 0.0001 µM (active),< 0.0001 µM (active),,< 0.0001 µM (active),< 0.0001 µM (active),< 0.0001 µM (active),< 0.0001 µM (active),< 0.0001 µM (active),< 0.0001 µM (active),< 0.0001 µM (active),< 1e-06 µM (active),,< 1e-06 µM (active),< 0.0001 µM (active),0.00131 µM (active),0.00191 µM (active),< 0.0001 µM (active),< 0.0001 µM (active),0.0001 µM (active)
